Experimental data reported in patent US11541056B2, “3-hydroxy-N-(3-(7H-pyrrolo[2,3-d]pyrimidin-4-yl)phenyl)pyrrolidine-1-carboxamide derivatives” (NOVARTIS AG, priority 2018, dated 2023).
Where two headings read alike, the source gives them in different places.

Assays:
Assay type in all cases: cell-based
BTK(C481S)-GFP = target: T1, BTK(C481S)-GFP (Homo sapiens, UniProt Q06187+Q96SW2, C481S); experiment: BTK(C481S)-GFP protein abundance flow cytometry assay in TMD8 cells; conditions: for BTK (C481S) Amax %: % protein remaining at concentration of maximum degradation; for DC50: concentration at which 50% maximal degradation was observed
T1 construct: with a mutagenesis reaction on pENTR221-BTK (STOP-Leu); CHYSEL (cis-acting hydrolase element, 2A) remnant after GFP; mCherry is split off as a separate protein (C); expressed in transfected cells; host or cells: TMD8 cells, lentiviral transduction with pLenti6-BTK(C481S)-GFP-CHYSEL-mCherry
T1 sequence (Q06187 whole entry C481S): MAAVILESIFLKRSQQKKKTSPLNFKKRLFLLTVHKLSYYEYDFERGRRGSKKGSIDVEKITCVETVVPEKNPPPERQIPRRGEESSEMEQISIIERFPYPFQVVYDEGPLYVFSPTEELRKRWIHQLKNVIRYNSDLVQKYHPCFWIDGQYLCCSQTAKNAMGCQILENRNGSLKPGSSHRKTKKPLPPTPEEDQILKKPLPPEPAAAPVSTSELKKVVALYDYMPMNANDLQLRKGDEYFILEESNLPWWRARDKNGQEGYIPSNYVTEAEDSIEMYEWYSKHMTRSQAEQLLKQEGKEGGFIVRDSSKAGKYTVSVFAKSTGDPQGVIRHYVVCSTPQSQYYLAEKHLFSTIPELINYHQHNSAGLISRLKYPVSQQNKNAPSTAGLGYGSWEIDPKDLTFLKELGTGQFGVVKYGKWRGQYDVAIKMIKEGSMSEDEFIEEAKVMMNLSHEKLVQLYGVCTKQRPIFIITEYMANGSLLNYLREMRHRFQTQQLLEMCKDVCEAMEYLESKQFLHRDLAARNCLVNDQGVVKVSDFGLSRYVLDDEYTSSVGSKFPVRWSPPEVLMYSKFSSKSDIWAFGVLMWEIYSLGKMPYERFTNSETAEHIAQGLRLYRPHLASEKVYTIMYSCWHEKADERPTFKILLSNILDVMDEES
T1 sequence (Q96SW2 whole entry): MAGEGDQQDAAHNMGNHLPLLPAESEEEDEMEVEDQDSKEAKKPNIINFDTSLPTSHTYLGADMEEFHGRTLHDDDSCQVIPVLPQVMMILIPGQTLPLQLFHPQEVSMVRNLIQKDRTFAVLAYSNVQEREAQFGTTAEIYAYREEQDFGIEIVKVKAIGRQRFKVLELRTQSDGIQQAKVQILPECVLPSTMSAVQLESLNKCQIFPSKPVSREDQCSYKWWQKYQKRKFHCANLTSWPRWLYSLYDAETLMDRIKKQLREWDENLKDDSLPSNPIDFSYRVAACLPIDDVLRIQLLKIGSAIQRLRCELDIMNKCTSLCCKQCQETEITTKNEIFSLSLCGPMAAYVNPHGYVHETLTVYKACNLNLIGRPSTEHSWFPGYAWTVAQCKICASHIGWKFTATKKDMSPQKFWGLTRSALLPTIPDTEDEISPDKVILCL
T1 sequence (Q16531 whole entry partner): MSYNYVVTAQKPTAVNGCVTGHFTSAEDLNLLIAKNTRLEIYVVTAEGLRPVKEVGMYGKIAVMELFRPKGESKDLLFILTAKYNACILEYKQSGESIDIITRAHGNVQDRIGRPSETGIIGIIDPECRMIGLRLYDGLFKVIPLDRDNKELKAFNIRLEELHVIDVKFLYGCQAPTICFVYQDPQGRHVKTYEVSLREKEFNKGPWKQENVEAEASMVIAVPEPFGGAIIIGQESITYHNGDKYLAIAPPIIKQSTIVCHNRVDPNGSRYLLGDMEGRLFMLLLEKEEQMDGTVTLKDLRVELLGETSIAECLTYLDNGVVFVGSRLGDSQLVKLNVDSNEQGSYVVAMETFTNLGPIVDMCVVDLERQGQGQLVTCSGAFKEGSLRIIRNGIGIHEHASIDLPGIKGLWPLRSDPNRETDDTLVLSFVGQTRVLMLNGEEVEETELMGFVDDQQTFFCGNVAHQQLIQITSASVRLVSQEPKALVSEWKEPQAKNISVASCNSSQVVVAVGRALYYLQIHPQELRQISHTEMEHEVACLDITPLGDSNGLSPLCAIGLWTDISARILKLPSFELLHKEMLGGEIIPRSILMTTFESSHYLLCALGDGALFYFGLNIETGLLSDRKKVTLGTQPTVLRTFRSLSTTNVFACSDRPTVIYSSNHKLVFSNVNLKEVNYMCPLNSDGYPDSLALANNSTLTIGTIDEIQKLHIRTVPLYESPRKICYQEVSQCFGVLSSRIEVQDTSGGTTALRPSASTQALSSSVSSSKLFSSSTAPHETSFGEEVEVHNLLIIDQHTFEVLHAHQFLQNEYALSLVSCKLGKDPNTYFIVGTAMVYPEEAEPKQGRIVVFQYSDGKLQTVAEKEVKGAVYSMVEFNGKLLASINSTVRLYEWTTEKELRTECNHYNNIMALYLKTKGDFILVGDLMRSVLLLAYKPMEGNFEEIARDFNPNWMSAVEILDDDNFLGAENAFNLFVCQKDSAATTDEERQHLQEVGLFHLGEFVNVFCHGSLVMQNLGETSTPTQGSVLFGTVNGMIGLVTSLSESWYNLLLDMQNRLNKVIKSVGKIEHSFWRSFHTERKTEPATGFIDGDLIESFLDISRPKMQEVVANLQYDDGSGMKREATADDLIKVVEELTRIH
Method: (§1) Compounds of the invention were tested in the following cellular assays. The terms in Table 1 are defined as follows: DC50 refers to the concentration at which 50% maximal degradation was observed; deg Amax is the extent of degradation and the value refers to the % protein remaining at the concentration at which maximum degradation is seen; Prol GI50 refers to the proliferation data and defines the concentration at which 50% growth inhibition was observed compared to the vehicle treated control at the end of the incubation time. TMD8 cells are BTK dependent and OCI-LY3 cells are BTK independent.
BTK(C481S)-GFP Protein Abundance Flow Cytometry Assay in TMD8 Cells:
Degradation of BTK(C481S) was measured in TMD8 cells expressing BTK(C481S)-GFP and mCherry from a stably integrated second generation bicistronic BTK(C481S)-GFP-CHYSEL-mCherry construct. Reduction of the GFP signal measured by flow cytometry served as readout for BTK(C481S) degradation after degrader treatment.

TMD8 cells = experiment: Resazurin cell viability assay in DLBCL cells (TMD8); conditions: TMD8 cells (BTK dependent), 50% growth inhibition, read-out: TMD8 Prol GI50
Method: as §1
(§2) Cell Viability Assay in DLBCL (Diffuse Large B-Cell Lymphoma) Cells:
(§3) The effect of the BTK compounds on cell proliferation was measured by a Resazurin (Sigma, #R7017) based cell viability assay. TMD8 (BTK compound sensitive) and OCI-LY3 (BTK compound insensitive) cells were incubated for 72 h at 37° C. and 5% CO2 with the corresponding compound. Resazurin is a non-toxic, cell-permeable substrate that is virtually non-fluorescent. Upon entering living cells, Resazurin (Sigma, #R7017) is reduced to highly fluorescent Resorufin. The metabolic activity was assessed by measuring the fluorescence signal (ex. 530 nm; em. 600 nm).
(§4) TMD8 and OCI-Ly3 cells were seeded at day 0 in triplicates at a cell density of 1×10^4 cells per 150 μl/well in a 96-well plate (Costar #3904). Additional plates were prepared, in order to assess the basal metabolic activity of both cell lines at the beginning of the experiment. For these reference plates, Resazurin (Sigma, #R7017) was added to a final concentration of 13 μg/ml 3 h post seeding and was incubated for 2 h at 37° C. and 5% CO2. Following incubation, the fluorescent signal intensity of the 96-well plates was measured on a Mithras LB940 multimode plate reader at 530/600 nm (Berthold Technologies, Germany).
(§5) In parallel, 3 h post-seeding, test-plates were treated with compound at various concentrations, or with vehicle (DMSO) alone for 3 days. The compound addition to the plates was performed by using a HP D300 digital dispenser (TECAN, Switzerland). The compounds were tested in triplicate, 8-point serial dilution (1:4), with a start concentration of 10 μM for OCI-LY3 and 1 μM for the TMD8 cells, respectively. To assess the relative proliferation of the cells, Resazurin was added to each well directly to the medium to a final concentration of 13 μg/ml. The plates were incubated for 2 h at 37° C. and 5% CO2 to result in a 72 h endpoint. Following incubation, the fluorescent signal intensity of the 96-well plates were measured on a Mithras LB940 multimode plate reader at 530/600 nm (Berthold Technologies, Germany). The formation of Resorufin dye directly correlates with the number of metabolically active cells. For each triplicate treatment the mean and standard deviation were calculated and analyzed via curve fitting software to determine the respective compound concentration resulting in 50% growth inhibition (GI50) values. For each compound GI50 values were typically determined from at least 2 entirely independent experiments.
TMD8 cells were acquired through a license agreement with Tokyo Medical and Dental University, Japan. Cells are cultivated in MEM Alpha (BioConcept, #1-23F01-I, lot. LB04262P) supplemented with 10% FCS (HyClone, GE #SH30066.03, lot AB217603), 2 mM L-Glutamine (BioConcept, #5-10K50-H, lot. LA03467P), 1% Pen/Strep (BioConcept, #4-01F00-H, lot. LB04235P).

OCI-LY3 cells = experiment: Resazurin cell viability assay in DLBCL cells (OCI-LY3); conditions: Homo sapiens, OCI-Ly3, 72 h, OCI-LY3 cells (BTK independent), 50% growth inhibition, read-out: OCI-LY3 Prol GI50
Method: as §1, §2, §3, §4, §5
OCI-LY3 cells were acquired through a license agreement with University Health Network, Toronto, Canada. Cells are cultivated in RPMI1640 media (Gibco, #61870-010, lot. 1894759), supplemented with 10% FCS (HyClone, GE #SH30066.03, lot AB217603), 2 mM L-Glutamine (BioConcept, #5-10K50-H, lot. LA03467P), 1 mM Sodium Pyruvate (BioConcept, #5-60F00-H, lot. LB10510P), 10 mM HEPES (Gibco, #15630-056, lot. 1854074), 1% Pen/Strep (BioConcept, #4-01F00-H, lot. LB04235P).

SMILES	BTK (C481S) Amax % (BTK(C481S)-GFP)	DC50 (BTK(C481S)-GFP)	GI50 (OCI-LY3 cells)	GI50 (TMD8 cells; 72 h)	GI50 (TMD8 cells; Homo sapiens, TMD8, 72 h)
COc1ccc(C(=O)N2CCC(OCCN3CCN(Cc4ccc(-c5cc6c(-c7cc(F)cc(NC(=O)N8C[C@H](CC(C)C)[C@@H](O)C8)c7C)ncnc6[nH]5)cc4)CC3)CC2)cc1N1CCC(=O)NC1=O [Compound 2, (3R,4S)—N-(3-(6-(4-((4-(2-((1-(3-(2,4-Dioxotetrahydropyrimidin-1 (2H)-yl)-4-methoxybenzoyl)piperidin-4-yl)oxy)ethyl)piperazin-1-yl)methyl)phenyl)-7H-pyrrolo[2,3-d]pyrimidin-4-yl)-5-fluoro-2-methylphenyl)-3-hydroxy-4-isobutylpyrrolidine-1-carboxamide]	2.0%	0.4 nM	7730 nM	–	0.31 nM
COc1ccc(C(=O)N2CCC(OC3CCN(Cc4ccc(-c5cc6c(-c7cc(F)cc(NC(=O)N8C[C@H](CC(C)C)[C@@H](O)C8)c7C)ncnc6[nH]5)cc4)CC3)CC2)cc1N1CCC(=O)NC1=O [Compound 8, (3R,4S)—N-(3-(6-(4-((4-((1-(3-(2,4-Dioxotetrahydropyrimidin-1(2H)-yl)-4-methoxybenzoyl)piperidin-4-yl)oxy)piperidin-1-yl)methyl)phenyl)-7H-pyrrolo[2,3-d]pyrimidin-4-yl)-5-fluoro-2-methylphenyl)-3-hydroxy-4-isobutylpyrrolidine-1-carboxamide]	2.7%	0.4 nM	> 10000 nM	–	0.4 nM
COc1ccc(C(=O)N2CCC(CN3CCC(Oc4ccc(-c5cc6c(-c7cc(F)cc(NC(=O)N8C[C@H](CC(C)C)[C@@H](O)C8)c7C)ncnc6[nH]5)cc4)CC3)CC2)cc1N1CCC(=O)NC1=O [Compound 11, (3R,4S)—N-(3-(6-(4-((1-((1-(3-(2,4-Dioxotetrahydropyrimidin-1 (2H)-yl)-4-methoxybenzoyl)piperidin-4-yl)methyl)piperidin-4-yl)oxy)phenyl)-7H-pyrrolo[2,3-d]pyrimidin-4-yl)-5-fluoro-2-methylphenyl)-3-hydroxy-4-isobutylpyrrolidine-1-carboxamide]	2.2%	0.2 nM	3510 nM	–	0.18 nM
COc1ccc(C(=O)N2CCC(CN3CCN(Cc4ccc(-c5cc6c(-c7cc(F)cc(NC(=O)N8C[C@H](CC(C)C)[C@@H](O)C8)c7C)ncnc6[nH]5)cc4)CC3)CC2)cc1N1CCC(=O)NC1=O [Compound 12, (3R,4S)—N-(3-(6-(4-((4-((1-(3-(2,4-Dioxotetrahydropyrimidin-1(2H)-yl)-4-methoxybenzoyl)piperidin-4-yl)methyl)piperazin-1-yl)methyl)phenyl)-7H-pyrrolo[2,3-d]pyrimidin-4-yl)-5-fluoro-2-methylphenyl)-3-hydroxy-4-isobutylpyrrolidine-1-carboxamide]	3.0%	0.3 nM	> 10000 nM	–	0.3 nM

The next lines start with results.

BTK (C481S) Amax % (BTK(C481S)-GFP)	DC50 (BTK(C481S)-GFP)	GI50 (OCI-LY3 cells)	SMILES	GI50 (TMD8 cells; 72 h)	GI50 (TMD8 cells; Homo sapiens, TMD8, 72 h)
2.0%	1.3 nM	7460 nM	COc1ccc(C(=O)N2CCC3(CCN(Cc4ccc(-c5cc6c(-c7cc(F)cc(NC(=O)N8C[C@@H](CC(C)C)[C@H](O)C8)c7C)ncnc6[nH]5)cc4)CC3)CC2)cc1N1CCC(=O)NC1=O (racemic) [Compound 5, trans-rac-N-(3-(6-(4-((9-(3-(2,4-Dioxotetrahydropyrimidin-1(2H)-yl)-4-methoxybenzoyl)-3,9-diazaspiro[5.5]undecan-3-yl)methyl)phenyl)-7H-pyrrolo[2,3-d]pyrimidin-4-yl)-5-fluoro-2-methylphenyl)-3-hydroxy-4-isobutylpyrrolidine-1-carboxamide]	0.73 nM	–
3.6%	41 nM	7120 nM	COc1ccc(C(=O)N2CCC3(CCN(Cc4ccc(-c5cc6c(-c7cc(F)cc(NC(=O)N8C[C@@H](CC(C)C)[C@H](O)C8)c7C)ncnc6[nH]5)cc4)CC3)CC2)cc1N1CCC(=O)NC1=O [Compound 1, (3S,4R)—N-(3-(6-(4-((9-(3-(2,4-Dioxotetrahydropyrimidin-1(2H)-yl)-4-methoxybenzoyl)-3,9-diazaspiro[5.5]undecan-3-yl)methyl)phenyl)-7H-pyrrolo[2,3-d]pyrimidin-4-yl)-5-fluoro-2-methylphenyl)-3-hydroxy-4-isobutylpyrrolidine-1-carboxamide]	–	14 nM
2.1%	0.7 nM	9920 nM	COc1ccc(C(=O)N2CCC3(CCN(Cc4ccc(-c5cc6c(-c7cc(F)cc(NC(=O)N8C[C@H](CC(C)C)[C@@H](O)C8)c7C)ncnc6[nH]5)cc4)CC3)CC2)cc1N1CCC(=O)NC1=O [Compound 6, (3R,4S)—N-(3-(6-(4-((9-(3-(2,4-Dioxotetrahydropyrimidin-1(2H)-yl)-4-methoxybenzoyl)-3,9-diazaspiro[5.5]undecan-3-yl)methyl)phenyl)-7H-pyrrolo[2,3-d]pyrimidin-4-yl)-5-fluoro-2-methylphenyl)-3-hydroxy-4-isobutylpyrrolidine-1-carboxamide]	–	0.45 nM
1.1%	0.2 nM	9220 nM	COc1ccc(C(=O)N2CCC(OC3CCN(CCc4ccc(-c5cc6c(-c7cc(F)cc(NC(=O)N8C[C@H](CC(C)C)[C@@H](O)C8)c7C)ncnc6[nH]5)cc4)CC3)CC2)cc1N1CCC(=O)NC1=O [Compound 13, (3R,4S)—N-(3-(6-(4-(2-(4-((1-(3-(2,4-Dioxotetrahydropyrimidin-1(2H)-yl)-4-methoxybenzoyl)piperidin-4-yl)oxy)piperidin-1-yl)ethyl)phenyl)-7H-pyrrolo[2,3-d]pyrimidin-4-yl)-5-fluoro-2-methylphenyl)-3-hydroxy-4-isobutylpyrrolidine-1-carboxamide]	–	0.24 nM
3.0%	0.9 nM	7250 nM	COc1ccc(C(=O)N2CCC3(CCN(CCc4ccc(-c5cc6c(-c7cc(F)cc(NC(=O)N8C[C@H](CC(C)C)[C@@H](O)C8)c7C)ncnc6[nH]5)cc4)CC3)CC2)cc1N1CCC(=O)NC1=O [Compound 15, (3R,4S)—N-(3-(6-(4-(2-(9-(3-(2,4-Dioxotetrahydropyrimidin-1(2H)-yl)-4-methoxybenzoyl)-3,9-diazaspiro[5.5]undecan-3-yl)ethyl)phenyl)-7H-pyrrolo[2,3-d]pyrimidin-4-yl)-5-fluoro-2-methylphenyl)-3-hydroxy-4-isobutylpyrrolidine-1-carboxamide]	–	0.22 nM
